We go through one molecule from patent US7638540B2, “Benzofuran compound and medicinal composition containing the same” (The New Industry Research Organization, priority 2003, dated 2009).

The structures appear in SMILES notation.

Experiment [1] deals with T1, human BLT2 (Homo sapiens, UniProt Q9NPC1).
T1 construct: expressed in transfected cells; host or cells: CHO cells
T1 sequence (Q9NPC1 1-358): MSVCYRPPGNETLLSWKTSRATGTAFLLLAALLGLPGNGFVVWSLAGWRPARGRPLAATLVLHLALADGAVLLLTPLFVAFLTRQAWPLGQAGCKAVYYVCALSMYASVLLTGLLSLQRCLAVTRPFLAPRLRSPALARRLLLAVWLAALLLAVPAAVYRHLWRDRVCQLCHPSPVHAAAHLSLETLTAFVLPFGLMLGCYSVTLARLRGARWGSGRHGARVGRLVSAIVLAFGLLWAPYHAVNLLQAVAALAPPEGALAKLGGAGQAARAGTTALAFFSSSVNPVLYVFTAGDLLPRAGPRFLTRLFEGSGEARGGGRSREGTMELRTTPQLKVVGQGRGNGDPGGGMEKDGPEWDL
Put plainly: LTB4-induced increase in intracellular calcium ion concentration in CHO cells expressing human BLT2 (Fluo-3, Flexstation). The class given is cell-based. The conditions noted are these: CHO cells with human BLT2; LTB4 100 nM final; positive control antagonist. The protocol: (§1) CHO cells habouring a gene encoding human BLT1 or human BLT2 and functionally expressing the receptor were seeded in a 96 well plate at 4×10^4 cells/well, and cultured at 37° C. for 60 min. The culture supernatant was removed and a loading buffer (100 μl) containing 4 μM Fluo-3 (manufactured by Dojindo), 0.04% pluoronic acid (manufactured by Sigma) and 1% serum was added. The mixture was culture at 37° C. for 30 min to introduce Fluo-3 into the cells. After culture, the cells were washed with a buffer, and a buffer containing various compounds (10 μM (final concentration)) was added, and then 100 nM (final concentration) of LTB4 was added. Changes in the intracellular calcium ion concentration were measured with Flexstation (manufactured by Molecular Devices Corporation) as increase in the fluorescence intensity (area under a curve in a time-course graph of fluorescence intensity in 10 min measurement). As a positive control of BLT1 and BLT2 antagonists, ZK158252 was used.

In experiment [2] the target is T2, human BLT1 (Homo sapiens, UniProt Q15722).
T2 construct: expressed in transfected cells; host or cells: CHO cells
T2 sequence (Q15722 whole entry): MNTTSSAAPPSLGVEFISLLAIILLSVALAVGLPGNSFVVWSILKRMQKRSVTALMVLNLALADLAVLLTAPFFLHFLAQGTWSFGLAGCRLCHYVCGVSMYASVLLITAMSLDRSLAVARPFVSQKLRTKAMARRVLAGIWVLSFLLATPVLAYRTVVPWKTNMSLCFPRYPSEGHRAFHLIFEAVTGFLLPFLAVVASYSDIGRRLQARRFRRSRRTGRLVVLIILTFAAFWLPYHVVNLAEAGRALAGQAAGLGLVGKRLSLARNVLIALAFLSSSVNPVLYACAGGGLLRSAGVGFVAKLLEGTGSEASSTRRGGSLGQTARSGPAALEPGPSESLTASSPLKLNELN
Put plainly: LTB4-induced increase in intracellular calcium ion concentration in CHO cells expressing human BLT1 (Fluo-3, Flexstation). The class given is cell-based. Conditions: CHO cells with human BLT1; LTB4 100 nM final; compound 10 μM final. As for the experimental part:
as §1

For the molecule `O=C(O)CCC/C=C1\CCCCC1/C=C/C=C/C(O)C1(CC#Cc2ccccc2)CCC1` (centres unmarked) [ZK158252, reference compound], the “Suppression of increase in intracellular calcium ion concentration due to LTB4 stimulation (in words)” value in experiment [1] and in experiment [2] was “significantly suppressed” throughout.
